Source: ChEMBL document CHEMBL1151535, “Oxiranes with quinoline substitution : Stereoselective synthesis and antiviral activity” (1996)

How the values were obtained:
Format in all cases: functional
[1] = test system: Encephalomyocarditis virus; assay: In vitro antiviral activity against Encephalomyocarditis virus(EMCV) […], at the concentration 15.6 ug/ml.
Mus musculus = assay: In vivo antiviral activity against Encephalomyocarditis virus(EMCV) in mice, at the concentration 0.25 mg/mouse
[2] = test system: Encephalomyocarditis virus; assay: In vitro antiviral activity against Encephalomyocarditis virus(EMCV) […], at the concentration 1000-1 ug/ml.
[3] = test system: Encephalomyocarditis virus; assay: In vitro antiviral activity against Encephalomyocarditis virus(EMCV) […], at the concentration 7.8 ug/ml.

For `COc1ccc([C@@H]2O[C@H]2C(=O)NNc2cc(C)c3ccccc3n2)cc1`, the Protection [1] was 75% and the Protection (Mus musculus) was 25%.

In the case of `Cc1cc(NNC(=O)CCl)nc2ccccc12`, the Protection [2] is reported as 0%.

In the case of `Cc1cc(NNC(=O)[C@@H]2O[C@H]2c2ccc(Cl)cc2)nc2ccccc12`, the Protection [2] is reported as 0%.

`Cc1cc(NNC(=O)[C@@H]2O[C@H]2c2ccncc2)nc2ccccc12` showed a Protection [2] of 0%.

`Cc1cc(NNC(=O)[C@@H]2O[C@H]2c2ccc3c(c2)OCO3)nc2ccccc12` was tested, and the Protection [3] was 75% and the Protection (Mus musculus) was 10%.

Molecule `Cc1cc(NNC(=O)[C@@H]2O[C@H]2c2cccc([N+](=O)[O-])c2)nc2ccccc12` has a Protection [2] of 0%.
